Measured values taken from patent US10792301B2, “Therapeutic polysaccharide midi-GAGR and related materials and methods” (priority 2015, dated 2020).

Legend:
[1] = tested on: Mouse cortical neurons (E17, DIV5); test: LIVE/DEAD assay, pre-treated mouse cortical neurons with 4HNE, H2O2 or Aβ42; type: cell-based; conditions: pre-treatment 24 h (1 μM midi-GAGR, dextran, alginate; 0.1 μM LA-GAGR; 0.01 μM HA-GAGR)
Source text: The protective effect of polysaccharides on primary cortical neurons from 4HNE, H2O2, and Aβ42 peptide (Sigma) was examined using LIVE/DEAD® Viability/Cytotoxicity Assay Kit (Life Technologies). Female pregnant mice (BALB/C, E17, Charles River Laboratories International, Inc.) or female pregnant SD rats (E17, bred in house) were anesthetized and dissected to obtain 8-9 embryos per animal. Cortical neurons were isolated from embryonic brains and differentiated on poly-L-lysine-coated coverslips in B27/neurobasal medium. For drug treatment before free radical treatment, mouse cortical neurons (5 days in vitro [DIV5.]) were treated with vehicle (H2O), 1 μM of 5 kD dextran (Sigma), alginate (Sigma), midi-GAGR, 0.01 μM of high acyl gellan gum (HA-GAGR, CPKelco Co.), or 0.1 μM of LA-GAGR for 24 h and then treated with 10 μM 4HNE or 50 μM H2O2 for 24 h, or 2 μM A[…]42 peptide for 48 h prior to viability/cytotoxicity assay. For drug co-treatment with free radicals, rat cortical neurons (DIV5) were treated with 1 μM of dextran, alginate, or midi-GAGR, 0.01 μM of HA-GAGR, or 0.1 μM of LA-GAGR along with either 10 μM 4HNE (24 h) or 2 μM Aβ42 peptide (48 h). To examine the extent to which midi-GAGR-mediated neuroprotection depends on FGFR1, rat cortical neurons (E17, DIV5) were pre-treated with 4 μM SU5402 (Sigma) for 6 h and treated with 10 μM 4HNE and either vehicle or 1 μM midi-GAGR for 24 h prior to cell viability/cytotoxicity assay. As controls, neurons were treated with SU5402, midi-GAGR, 4HNE, 4HNE plus midi-GAGR, or SU5402 plus midi-GAGR.
For cell viability/cytotoxicity measurement, neurons on glass coverslips were incubated in 1×PBS containing 2 μM calcein AM (live cells: green) and 4 μM ethidium homodimer-1 (dead cells: red) for 10 min at 37° C. Immediately thereafter, neurons were imaged by 10×objective using a fluorescence Olympus IX71 microscope (Olympus America Inc., Center Valley, Pa.) and, for the acquisition of high-quality images, using TCS SP5 multi-photon laser scanning confocal microscope.
Midi-GAGR attenuated neurite atrophy caused by free reactive radicals. It is now shown herein that midi-GAGR protect neurons from the death caused by free radical insults. The extent to which midi-GAGR protects the primary culture of rodent cortical neurons from 4HNE and H2O2 was determined. In addition to the radicals, amyloid β peptide (Aβ42) was also tested. Aβ42 peptide is a major causative factor that causes oxidative stress and neuron death. Mouse cortical neurons (E17, DIV5) were treated with 10 μM 4HNE (24 h), 50 μM H2O2 (24 h), or 2 μM Aβ42 peptide (48 h) after the treatment of the neurons with vehicle (H2O), midi-GAGR (1 μM), dextran (1 μM), alginate (1 μM), LA-GAGR (0.1 μM), or HA-GAGR (0.01 μM) for 24 h. The concentrations of 4HNE, H2O2, and Aβ42 peptide were chosen according to their patho-physiological concentrations. The concentrations of LA-GAGR and HA-GAGR were chosen because, within the same volume, the total numbers of sugar units in the polysaccharides at the concentrations are close to that of 1 μM midi-GAGR. The viability of neurons was assessed using LIVE/DEAD® Viability/Cytotoxicity Assay Kit in which membrane-permeant calcein AM is cleaved by esterase in live cells, thus yielding green fluorescence, and membrane-impermeant ethidium homodimer-1 stains the nucleic acids of plasma membrane-compromised cells with red fluorescence. The numbers of green (live) and red (dead) neurons in each condition were counted using Metamorph. Although the intensities of green fluorescent signals in neurons treated with either free radicals or Aβ42 peptide were weak, the neurons were included in the counting. About 8-9% of vehicle-treated neurons died during the process of live/dead cell assay (FIGS. 23A-23F, FIGS. 24A-24C).

FGFR1 = molecular target: T1, FGFR1 (Mus musculus, UniProt P16092); test: Affinity chromatography with midi-GAGR- or dextran-conjugated sepharose beads, FGFR1 immunoblot; type: binding; conditions: brain extract in 0.5% Igepal PMEE buffer
T1 construct: Whole mouse brains were homogenized for cytosol extraction in PMEE buffer containing 1% Igepal CA-630; from tissue; host or cells: mouse cerebral cortex / whole brain detergent extract
Method: To examine whether midi-GAGR interacts with synaptosomal FGFR1 or not, an affinity chromatography using midi-GAGR-conjugated sepharose beads was performed. Either midi-GAGR or dextran were conjugated to epoxy-activated sepharose 6B that is a pre-activated medium that can be conjugated to the hydroxyl groups of carbohydrates. Briefly, 200 μL of 7.4 mM midi-GAGR or 5 kD dextran in H2O was mixed with 200 μL of epoxy-activated sepharose beads in a microtube and incubated on a rotator (16 h, 37° C.). The mixture was spun down at 1,000×g (10 min) to separate bead-bound polysaccharides from unbound. Unoccupied active sites on beads were blocked by incubation (4 h, 45° C.) in 1 M ethanolamine (pH 8). Then, beads were washed with three cycles of alternating pH solutions—0.1 M acetate buffer (pH 4) and 0.1 M Tris-HCl buffer (pH 8), both containing 0.5 M NaCl. The conjugation of polysaccharides to beads was confirmed by phenol-sulfuric acid colorimetry. Cerebral cortices were dissected from four female mice (BALB/C, 8 wks old) and homogenized with a hand grinder in 1 mL of PMEE homogenization buffer plus 1% Igepal CA-630 and protease inhibitors (PIs). The homogenate was centrifuged at 1,000×g (10 min) to remove nuclei and undisrupted cells. The supernatant was subjected to 5-6 strokes through 27 G needle. Post-nuclear supernatant was centrifuged at 1,000×g (15 min). […]

T1 sequence (P16092 22-822): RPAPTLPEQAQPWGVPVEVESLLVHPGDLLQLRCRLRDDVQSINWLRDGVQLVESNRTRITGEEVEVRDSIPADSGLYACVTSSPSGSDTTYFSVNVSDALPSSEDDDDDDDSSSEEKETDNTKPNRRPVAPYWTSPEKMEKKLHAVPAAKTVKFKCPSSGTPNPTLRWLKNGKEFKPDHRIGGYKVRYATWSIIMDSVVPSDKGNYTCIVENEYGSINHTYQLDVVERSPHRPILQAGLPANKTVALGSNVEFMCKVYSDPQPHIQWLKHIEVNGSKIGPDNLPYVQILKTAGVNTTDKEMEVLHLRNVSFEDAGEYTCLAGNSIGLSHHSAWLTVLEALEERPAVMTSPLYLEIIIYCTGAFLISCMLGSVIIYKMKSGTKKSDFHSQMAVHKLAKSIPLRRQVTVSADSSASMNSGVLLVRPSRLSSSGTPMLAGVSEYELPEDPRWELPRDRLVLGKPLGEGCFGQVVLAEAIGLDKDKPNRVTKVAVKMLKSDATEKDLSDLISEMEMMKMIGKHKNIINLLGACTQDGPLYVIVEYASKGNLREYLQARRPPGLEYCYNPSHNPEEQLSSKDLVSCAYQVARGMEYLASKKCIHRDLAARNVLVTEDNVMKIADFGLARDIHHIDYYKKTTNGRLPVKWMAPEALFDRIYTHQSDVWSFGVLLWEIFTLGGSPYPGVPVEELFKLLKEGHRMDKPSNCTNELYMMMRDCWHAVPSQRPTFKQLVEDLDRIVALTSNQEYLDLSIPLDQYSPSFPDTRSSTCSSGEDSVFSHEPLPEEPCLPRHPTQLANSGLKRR

FGFR1 eluted from polysaccharide-conjugated beads (FGFR1): not from dextran beads
Substance: dextran
neuron death after Aβ42 peptide ([1]; 2 μM Aβ42 48 h, vehicle about 30%): did not decrease
neuron death after H2O2 ([1]; 50 μM H2O2 24 h, vehicle ~25%): did not reduce
